Experiments:
[1] = system: human granulosa cells; assay: Estradiol production by human granulosa cells from individual patients by diagnosis (NOR, ARA, PCOS); format: cell-based
Description: Human granulosa cells were prepared from the spent follicular fluid of women undergoing IVF treatment at Boston IVF Center (Waltham, MA, United States) and at Family Fertility Center (Baylor College of Medicine, Houston, TX, United States) following methods previously established ([Breckwoldt et al., 1996]; [Amsterdam et al., 2003]). Institutional review board approval and informed consent from the patients were obtained before collecting the follicular fluid samples. In brief, red blood cells (RBCs) in the follicular aspirate were lyzed using RBC lysis buffer (Quality Biological Inc., Gaithersburg, MD, United States), and washed extensively with PBS and DMEM/F12 containing 5% FBS, fungizone, and the antibiotics penicillin (100 IU/ml) and streptomycin (100 μg/ml). Subsequently, cells from the aspirate were plated in T75 flasks, cultured for 7 days with fresh media being replaced every other day. At the end of the culture period, cells were released from the flask by trypsin and transferred to 96-well plates (5,000 cells/well, Greiner Bio-One). Following 48 h of culture, media in culture wells was replaced with serum free media containing 0.1% BSA and 10^−7 M androstenedione. Following 24 h of serum starvation, cells were stimulated with fresh media (0.1% BSA, 10^−7 M androstenedione) with FSH or compound for 48 h. Supernatant was collected and stored at −80C for determination of estradiol by ELISA.
Clinical definitions of patient sub-populations for patients at Texas Fertility followed guidelines outlined by the Practice Committee of the American Society for Reproductive Medicine ([Practice Committee of the American Society for Reproductive Medicine, 2015]). […] Advanced reproductive age (ARA) was defined as woman of 35 years old or greater in age, based on the definition of advanced maternal age by Society for Maternal-Fetal Medicine. Polycystic Ovarian Syndrome (PCOS) is a patient with two out of the three Rotterdam criteria ([Rotterdam ESHRE/ASRM-Sponsored PCOS Consensus Workshop Group, 2004]) which includes hyperandrogenism (hirsutism or biochemical), oligomenorrhea or amenorrhea, and/or polycystic ovaries on ultrasound.

[2] = system: 55 targets; assay: Single concentration Cerep profile (Eurofins); format: binding; conditions: 10 uM
[3] = Solubility in PBS; format: physicochemical; conditions: PBS (pH 7.4)

SMILES | fold higher concentration than rec-hFSH required to stimulate maximum estradiol production [1] | Estradiol (pg/ml), ARA (n = 6) ([1]; FSH (20 nM) or TOP5300 (400 nM), advanced reproductive age, mean ± SD) | Estradiol (pg/ml), NOR (n = 2) ([1]; FSH (20 nM) or TOP5300 (400 nM), normal ovarian reserve, mean) | Estradiol (pg/ml), PCOS (n = 4) ([1]; FSH (20 nM) or TOP5300 (400 nM), polycystic ovarian disease, mean ± SD) | number of targets < 60% inhibition [2] | number of targets > 60% inhibition [2] | fold more soluble than TOP5300 [3]
COc1cc2c(cc1-c1cnn(CCO)c1)-c1c(c(C(=O)N(C)C(C)(C)C)nn1-c1cc(Cl)cc(Cl)c1)CO2 [TOP5300] | approximately 20 fold | 10,648 ± 7,338 pg/ml | 4,829 pg/ml | 1,276 + 1,563 pg/ml | 52 targets | 3 targets | 
COc1cc(C(N)=O)cc(-c2cc3c(cc2OC)OCc2c(C(=O)N(C)C(C)(C)C)nn(-c4cc(Cl)cc(Cl)c4)c2-3)n1 [TOP5668] |  |  |  |  |  |  | 14 fold
